Here are results for 30 molecules from patent US8357694B2, “Substituted 5,6-dihydro-6-phenylbenzo[F]isoquinolin-2-amine compounds” (ArQule, Inc., priority 2008, dated 2013).

Counter-ions that a name gives are not always drawn.

In general, melting point refers to the temperature, or range, at which the solid turns liquid.

As to `Clc1ccc([C@@H]2Cc3cnc(Nc4cccc(CCN5CCCCC5)c4)nc3-c3ccccc32)cc1Cl` (as salt: hydrochloride) [Example 167, (S)-6-(3,4-dichlorophenyl)-N-(3-(2-(piperidin-1-yl)ethyl)phenyl)-5,6-dihydrobenzo[h]quinazolin-2-amine hydrochloride], the melting point was in the range of 165 to 169 °C.

Molecule `CCCCN(C)CCc1ccc(Nc2ncc3c(n2)-c2ccccc2[C@H](c2ccc(Br)cc2)C3)cc1` (as salt: hydrochloride) [Example 98, (S)-6-(4-bromophenyl)-N-(4-(2-(butyl(methyl)amino)ethyl)phenyl)-5,6-dihydrobenzo[h]quinazolin-2-amine hydrochloride salt] returned a melting point of 170 to 175 °C. To `COCCNCCc1cc(Nc2ncc3c(n2)-c2ccccc2[C@H](c2ccccc2F)C3)ccc1F` (as salt: hydrochloride) [Example 173, (R)—N-(4-fluoro-3-(2-(2-methoxyethylamino)ethyl)phenyl)-6-(2-fluorophenyl)-5,6-dihydrobenzo[h]quinazolin-2-amine hydrochloride salt] belongs 131 to 132 °C. With `COCCNCc1cccc(Nc2ncc3c(n2)-c2ccccc2[C@H](c2ccccc2F)C3)c1` (as salt: hydrochloride) [Example 178, (R)-6-(2-fluorophenyl)-N-(3-((2-methoxyethylamino)methyl)phenyl)-5,6-dihydrobenzo[h]quinazolin-2-amine hydrochloride] the figure was 158 to 163 °C; with `Fc1ccc([C@H]2Cc3cnc(Nc4ccc(CCN5CCCCC5)cc4)nc3-c3ccccc32)cc1F` (as salt: hydrochloride) [Example 91, (R)-6-(3,4-difluorophenyl)-N-(4-(2-(piperidin-1-yl)ethyl)phenyl)-5,6-dihydrobenzo[h]quinazolin-2-amine hydrochloride], 165 to 167 °C; with `Brc1cccc(C2Cc3cnc(Nc4ccc(CCNCCN5CCCC5)cc4)nc3-c3ccccc32)c1` (stereo not drawn) [Example 47, 6-(3-bromophenyl)-N-(4-(2-(2-(pyrrolidin-1-yl)ethylamino)ethyl)phenyl)-5,6-dihydrobenzo[h]quinazolin-2-amine], 83 to 85 °C.

With `CCCCN(C)CCc1cc(Nc2ncc3c(n2)-c2ccccc2[C@H](c2ccccc2F)C3)ccc1F` (as salt: hydrochloride) [Example 172, (R)—N-(3-(2-(butyl(methyl)amino)ethyl)-4-fluorophenyl)-6-(2-fluorophenyl)-5,6-dihydrobenzo[h]quinazolin-2-amine hydrochloride salt], the melting point was 125 to 130 °C. As for `COCCN1CCN(CCc2ccc(Nc3ncc4c(n3)-c3ccccc3[C@H](c3cccc(Br)c3)C4)cc2)CC1` (as salt: hydrochloride) [Example 77, (S)-6-(3-bromophenyl)-N-(4-(2-(4-(2-methoxyethyl)piperazin-1-yl)ethyl)phenyl)-5,6-dihydrobenzo[h]quinazolin-2-amine hydrochloride], the melting point was 263 to 265 °C.

`CN(CCc1ccc(Nc2ncc3c(n2)-c2ccccc2[C@H](c2cccc(Br)c2)C3)cc1)C1CCCCC1` (as salt: hydrochloride) [Example 79, (S)-6-(3-bromophenyl)-N-(4-(2-(cyclohexyl(methyl)amino)ethyl)phenyl)-5,6-dihydrobenzo[h]quinazolin-2-amine hydrochloride]: the melting point is 167 to 172 °C. To `OCCc1cc(Nc2ncc3c(n2)-c2ccccc2[C@H](c2ccccc2F)C3)ccc1F` [Example 169, (R)-2-(2-fluoro-5-(6-(2-fluorophenyl)-5,6-dihydrobenzo[h]quinazolin-2-ylamino)phenyl)ethano] belongs 140 to 141 °C; to `CC(C)(C)OC(=O)N1CCC[C@@H](Nc2ncc3c(n2)-c2ccccc2[C@H](c2ccc(Cl)c(Cl)c2)C3)C1`, 85 to 87 °C; to `COCCNCc1cccc(Nc2ncc3c(n2)-c2ccccc2[C@H](c2ccccc2F)C3)c1` (as salt: HCl) [Example 158, (R)-6-(2-fluorophenyl)-N-(3-((2-methoxyethylamino)methyl)phenyl)-5,6-dihydrobenzo[h]quinazolin-2-amine], 139 to 147 °C. `Fc1ccc([C@@H]2Cc3cnc(Nc4ccc(CCN5CCCCC5)cc4)nc3-c3ccccc32)cc1F` (as salt: hydrochloride) [Example 84, (S)-6-(3,4-difluorophenyl)-N-(4-(2-(piperidin-1-yl)ethyl)phenyl)-5,6-dihydrobenzo[h]quinazolin-2-amine hydrochloride] gave a melting point of 163 to 165 °C.

Consider `CN(CCc1ccccc1)CCc1ccc(Nc2ncc3c(n2)-c2ccccc2C(c2cccc(Br)c2)C3)cc1` (stereo not drawn) [Example 37, 6-(3-bromophenyl)-N-(4-(2-(methyl(phenethyl)amino)ethyl)phenyl)-5,6-dihydrobenzo[h]quinazolin-2-amine], for which the melting point was in the range of 80 to 82 °C. With `Clc1ccc([C@H]2Cc3cnc(Nc4ccc(CCN5CCOCC5)cc4)nc3-c3ccccc32)cc1Cl` [Example 51, (R)-6-(3,4-dichlorophenyl)-N-(4-(2-morpholinoethyl)phenyl)-5,6-dihydrobenzo[h]quinazolin-2-amine] the figure was 166 to 167 °C; with `CN(CCc1ccc(Nc2ncc3c(n2)-c2ccccc2[C@H](c2ccc(F)c(F)c2)C3)cc1)C1CCCCC1` (as salt: hydrochloride) [Example 85, (S)—N-(4-(2-(cyclohexyl(methyl)amino)ethyl)phenyl)-6-(3,4-difluorophenyl)-5,6-dihydrobenzo[h]quinazolin-2-amine hydrochloride], 96 to 98 °C; with `CN(CCc1ccccc1)CCc1ccc(Nc2ncc3c(n2)-c2ccccc2[C@H](c2ccccc2F)C3)cc1` (as salt: hydrochloride) [Example 93, (R)-6-(2-fluorophenyl)-N-(4-(2-(methyl(phenethyl)amino)ethyl)phenyl)-5,6-dihydrobenzo[h]quinazolin-2-amine hydrochloride salt], 135 to 145 °C. To `CN(CCc1ccc(Nc2ncc3c(n2)-c2ccccc2C(c2cccc(Br)c2)C3)cc1)C1CCCCC1` (stereo not drawn) [Example 29, 6-(3-bromophenyl)-N-(4-(2-(cyclohexyl(methyl)amino)ethyl)phenyl)-5,6-dihydrobenzo[h]quinazolin-2-amine] belongs 215 to 217 °C; to `CC(C)(C)OC(=O)N1CCN(CCc2ccc(Nc3ncc4c(n3)-c3ccccc3C(c3ccccc3C(F)(F)F)C4)cc2)CC1` (stereo not drawn) [Example 72, tert-butyl 4-(4-(6-(2-(trifluoromethyl)phenyl)-5,6-dihydrobenzo[h]quinazolin-2-ylamino)phenethyl)piperazine-1-carboxylate], 234 to 235 °C; to `CN(C)CCCNc1ncc2c(n1)-c1ccccc1C(c1ccc(Cl)c(Cl)c1)C2` (stereo not drawn) [Example 11, N^1-(6-(3,4-dichlorophenyl)-5,6-dihydrobenzo[h]quinazolin-2-yl)-N^3,N^3-dimethylpropane-1,3-diamine], 110 to 114 °C. With `COCCN1CCN(CCc2ccc(Nc3ncc4c(n3)-c3ccccc3[C@H](c3ccc(Cl)c(Cl)c3)C4)cc2)CC1` (as salt: hydrochloride) [Example 115, (S)-6-(3,4-dichlorophenyl)-N-(4-(2-(4-(2-methoxyethyl)piperazin-1-yl)ethyl)phenyl)-5,6-dihydrobenzo[h]quinazolin-2-amine hydrochloride] the figure was 248 to 250 °C; with `COCCN1CCN(CCc2ccc(Nc3ncc4c(n3)-c3ccccc3[C@H](c3ccccc3F)C4)cc2)CC1` (as salt: hydrochloride) [Example 66, (R)-6-(2-fluorophenyl)-N-(4-(2-(4-(2-methoxyethyl)piperazin-1-yl)ethyl)phenyl)-5,6-dihydrobenzo[h]quinazolin-2-amine hydrochloride], 212 to 216 °C.

Take `COCCNCCc1ccc(Nc2ncc3c(n2)-c2ccccc2[C@H](c2ccc(F)c(F)c2)C3)cc1` (as salt: hydrochloride) [Example 86, (S)-6-(3,4-difluorophenyl)-N-(4-(2-(2-methoxyethylamino)ethyl)phenyl)-5,6-dihydrobenzo[h]quinazolin-2-amine hydrochloride]: the melting point was 85 to 87 °C. To `Nc1ncc2c(n1)-c1ccc(-c3ccccc3)cc1C(c1ccc(Cl)c(Cl)c1)C2` (stereo not drawn) [Example 21, 6-(3,4-dichlorophenyl)-8-phenyl-5,6-dihydrobenzo[h]quinazolin-2-amine] belongs 186 to 187 °C; to `Fc1ccc(C2Cc3cnc(NCCCN4CCCCC4)nc3-c3ccccc32)cc1` (stereo not drawn) [Example 16, 6-(4-fluorophenyl)-N-(3-(piperidin-1-yl)propyl)-5,6-dihydrobenzo[h]quinazolin-2-amine], 60 to 62 °C; to `CS(=O)(=O)OCCc1cc(Nc2ncc3c(n2)-c2ccccc2[C@H](c2ccccc2F)C3)ccc1F` [Example 170, (R)-2-fluoro-5-(6-(2-fluorophenyl)-5,6-dihydrobenzo[h]quinazolin-2-ylamino)phenethyl methanesulfonate], 99 to 100 °C. To `OCCc1ccc(Nc2ncc3c(n2)-c2ccccc2C(c2ccc(F)c(F)c2)C3)cc1` (stereo not drawn) [Example 23, 2-(4-(6-(3,4-difluorophenyl)-5,6-dihydrobenzo[h]quinazolin-2-ylamino)phenyl)ethanol] belongs 170 to 172 °C; to `CN(CCc1ccc(Nc2ncc3c(n2)-c2ccccc2C(c2ccc(Cl)c(Cl)c2)C3)cc1)C1CCCCC1` (stereo not drawn) [Example 30, N-(4-(2-(cyclohexyl(methyl)amino)ethyl)phenyl)-6-(3,4-dichlorophenyl)-5,6-dihydrobenzo[h]quinazolin-2-amine], 130 to 131 °C. With `COCCN1CCN(CCc2ccc(Nc3ncc4c(n3)-c3ccccc3C(c3ccc(Cl)cc3Cl)C4)cc2)CC1` (stereo not drawn) (as salt: hydrochloride) the figure was 208 to 212 °C; with `COCCN1CCN(CCc2ccc(Nc3ncc4c(n3)-c3ccccc3C(c3ccc(F)c(F)c3)C4)cc2)CC1` (stereo not drawn) [Example 59, 6-(3,4-difluorophenyl)-N-(4-(2-(4-(2-methoxyethyl)piperazin-1-yl)ethyl)phenyl)-5,6-dihydrobenzo[h]quinazolin-2-amine], 267 to 270 °C.
